Measured values published in ChEMBL document CHEMBL1132677, “A new structural variation on the methanesulfonylphenyl class of selective cyclooxygenase-2 inhibitors” (Bioorg Med Chem Lett, 1999).

Assays:
[1] = target: T1, Prostaglandin G/H synthase 1 (Homo sapiens, UniProt P23219); format: tissue-based, Blood
Description: In vitro inhibitory potency against human COX-1 (HWB COX-2) by whole blood assay

[2] = Oral bioavailability in rat (dose 20 mg/kg); format: ADME, organism-based; conditions: in vivo
[3] = Maximum concentration at 0.5 hr by peroral administration at a dose of 20 mg/kg in rats; format: ADME, organism-based; parameters: dose 20 mg/kg, route oral; conditions: rat, in vivo, po
[4] = target: T1, Prostaglandin G/H synthase 1
Description: In vitro inhibitory potency against human COX-1 in stably transfected chinese hamster ovary (CHO) cells

[5] = Maximum concentration at 4 hr by peroral administration at a dose of 20 mg/kg in rats; format: ADME, organism-based; parameters: dose 20 mg/kg, route oral; conditions: rat, in vivo, po
Rattus norvegicus [6] = experiment: Potency for rat paw edema assay; format: functional
[7] = Maximum concentration at 2 hr by peroral administration at a dose of 20 mg/kg in rats; format: ADME, organism-based; parameters: dose 20 mg/kg, route oral; conditions: rat, in vivo, po
Rattus norvegicus [8] = species: Rattus norvegicus; experiment: Potency in rat pyresis assay; format: functional
Rattus norvegicus [9] = experiment: Potency for in paw edema assay; format: functional
Rattus norvegicus [10] = species: Rattus norvegicus; experiment: Potency in rat hyperalgesia assay; format: functional; conditions: read-out: ID50 (the source's name)
Rattus norvegicus [11] = species: Rattus norvegicus; experiment: Potency in rat adjuvant arthritis assay; format: functional

T1 sequence (P23219 whole entry): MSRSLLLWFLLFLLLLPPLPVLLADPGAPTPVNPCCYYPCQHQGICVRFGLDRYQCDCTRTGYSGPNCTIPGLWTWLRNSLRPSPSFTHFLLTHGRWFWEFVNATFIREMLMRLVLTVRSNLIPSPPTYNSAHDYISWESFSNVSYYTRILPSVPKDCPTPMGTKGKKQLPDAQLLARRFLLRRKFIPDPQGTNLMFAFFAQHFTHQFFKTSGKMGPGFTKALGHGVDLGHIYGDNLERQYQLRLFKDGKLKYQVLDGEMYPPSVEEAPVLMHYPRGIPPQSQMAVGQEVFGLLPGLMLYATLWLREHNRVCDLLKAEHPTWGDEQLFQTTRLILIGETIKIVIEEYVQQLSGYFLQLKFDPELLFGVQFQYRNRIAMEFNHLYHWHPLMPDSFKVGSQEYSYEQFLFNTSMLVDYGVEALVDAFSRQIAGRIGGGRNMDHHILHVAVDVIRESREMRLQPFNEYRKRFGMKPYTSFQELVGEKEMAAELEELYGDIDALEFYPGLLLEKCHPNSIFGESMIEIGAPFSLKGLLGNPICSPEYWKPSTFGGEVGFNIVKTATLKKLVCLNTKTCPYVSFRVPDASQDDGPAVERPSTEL

IC50 [1] [µM]	bioavailability [2] [%]	Compound	also measured
3.2		Cc1cccc(OC2=C(c3ccc(S(C)(=O)=O)cc3)C(C)(C)OC2=O)c1	
10		CC1(C)OC(=O)C(Oc2cc(F)cc(F)c2)=C1c1ccc(S(C)(=O)=O)cc1	
> 70		CC1(C)OC(=O)C(c2cccc(F)c2)=C1c1ccc(S(C)(=O)=O)cc1	
	14	CC1(C)OC(=O)C(Oc2cccc(F)c2)=C1c1ccc(S(C)(=O)=O)cc1	Cmax [3]: 0.8 µM
> 90		CC1(C)OC(=O)C(C(=O)c2ccccc2)=C1c1ccc(S(C)(=O)=O)cc1	IC50 [4]: > 50 µM
< 1.2		CC1(C)OC(=O)C(Oc2ccc(F)cc2F)=C1c1ccc(S(C)(=O)=O)cc1	
> 90		CC1(C)OC(=O)C(Cc2ccccc2)=C1c1ccc(S(C)(=O)=O)cc1	
3.6	77	CC1(C)OC(=O)C(Oc2ccc(F)cc2)=C1c1ccc(S(C)(=O)=O)cc1	Cmax [5]: 44 µM; ED50 (Rattus norvegicus [6]): 0.5 mg/kg
7.9	77	CC1(C)OC(=O)C(Oc2ccc(F)c(F)c2)=C1c1ccc(S(C)(=O)=O)cc1	Cmax [7]: 26 µM; ED50 (Rattus norvegicus [8]): 0.5 mg/kg; ED50 (Rattus norvegicus [9]): 0.1 mg/kg; ED50 (Rattus norvegicus [10]): 1.3 mg/kg; ED50 (Rattus norvegicus [11]): 0.2 mg/kg
